Like-named read-outs stand apart in the source and are kept apart here.
How the values were obtained:
RL (CRL-2261) = assay: ATP (ViaLight plus) cytotoxicity assay; format: cell-based
Experimental: (§1) Certain compounds of the invention were subjected to further studies to test the cytotoxic activity of certain compounds of the invention and also to measure their activity against 4 haematological cancer cell lines • TdT positive CEM (Human ALL) • TdT negative K562 (Human CML) • TdT negative H1-60 (Human ANLL) • RL (CRL-2261) non-HD lymphoma • The concentrations of the active metabolite dATP (Cordycepin triphosphate) in these cell lines was also measured. • The cytotoxic activity and the intracellular 3′-dATP concentrations were also studied in the presence of hENT1, Adenosine Kinase (AK) and Adenosine Deaminase pharmacological inhibitors in CEM and RL cancer cell lines. Said inhibitors that mimic known cancer resistance mechanisms. Methods Cell Culture
(§2) HL-60 (ATCC® CCL-240™), K562 (ATCC® CCL-243™), CCRF-CEM (ATCC® CRM-CCL-119™) and RL (ATCC® CRL-2261™) leukaemia cell lines, obtained from the American Type Culture Collection (ATCC), Middlesex. HL-60 and K562 cell lines are deoxynucleotidyl transferase-negative (TdT-ve), whereas CCRF-CEM cell line is TdT+ve.
(§3) HL-60, K562, CCRF-CEM and RL cell lines were cultured in RPMI-1640 medium (Sigma Aldrich, UK), which were supplemented with 10% Fetal Bovine Serum (FBS) (PAA Laboratories), 1% amphotericin B (5.5 ml) and 1% penicillin/streptomycin (5.5 ml) (PAA Laboratories) and grown in flasks at 37° C. incubator with 5% CO2.
(§4) The amount of ATP was used as a measurement of cell number and cell viability. ATP ViaLight™ plus assay kit (Lonza, USA: Product No. LT07-121) to detect ATP in cells treated in luminescence compatible 96 well plates (initial concentration of cells was 1×10^4 cells/well) with cordycepin and ProTides at concentrations of: 0, 0.1, 0.5, 1, 5 and 10 μM, followed by incubation for 72 hours at 37° C. incubator with 5% CO2. For inhibitor studies, 10 μM of NBTI or 1 μM EHNA or A-134974 was added and left for 5 minutes before adding the drugs (see section 5 for inhibitor details).
(§5) After incubation, 50 μl of cell lysis reagent was added to the 96 well plates to release the intracellular ATP, followed by 100 μl of ATP monitoring reagent (AMR). The luminescent values of each well were determined using FLUOstar OPTIMA microplate reader (BMG Labtech) which convert ATP into light by using luciferase enzyme. Therefore, the amount of luminescence produced was directly proportional to the amount of ATP.
(§6) Cell lines were treated in the same way as described above but before treatment with drugs, a number of inhibitors were added: • 1) Nitrobenzylthioinosine (NBTI) (Sigma-Aldrich, St. Louis, Mo., product # N2255) blocks nucleoside transporters • 2) EHNA hydrochloride (Sigma-Aldrich, St. Louis, Mo., product # E114) blocks adenosine deaminase • 3) Adenosine kinase inhibitor A-134974 dihydrochloride hydrate (Sigma-Aldrich, St. Louis, Mo., product # A2846): blocks adenosine kinase
(§7) The dose-response curves of cytotoxicity of the drugs was determined using non-linear regression analysis of percentage cell viability versus concentration and EC50 values were obtained. The intracellular assay was conducted in five replicates for each condition. Intracellular assay was determined using paired t test (two-tailed) analysis of 3′ATP/ATP concentration and p-values were obtained. For all the analysis, Prism Software program (GraphPad Software) was used and Microsoft Powerpoint® 2013 was used to plot the results.

[1] = tested on: CCRF-CEM (TdT positive CEM); assay: ATP (ViaLight plus) cytotoxicity assay; format: cell-based, Human; details: for IC50: Homo sapiens, CCRF-CEM
Experimental: as §1, §2, §3, §4, §5, §6, §7

[2] = tested on: leukaemic stem cell (LSC) compartment within the KG1a cell line; assay: Immunophenotypic identification of the leukaemic stem cell compartment; format: cell-based; details: 72 h
Experimental: KG1a cells were cultured for 72 h in the presence of a wide range of concentrations of each compound assayed. Cells were then harvested and labelled with a cocktail of anti-lineage antibodies (PE-cy7), anti-CD34 (FITC), anti-CD38 (PE) and anti-CD123 (PERCP cy5). The sub-population expressing a LSC phenotype were subsequently identified and were expressed as a percentage of all viable cells left in the culture. The percentages of stem cells remaining were then plotted on a dose-response graph and the effects of the compounds were compared with each other, and with the parent nucleoside.
The data obtained in these experiments were evaluated using one way ANOVA. All data was confirmed as Gaussian or a Gaussian approximation using the omnibus K2 test. LD50 values were calculated from the non-linear regression and line of best-fit analysis of the sigmoidal dose-response curves. All statistical analyses were performed using Graphpad Prism 6.0 software (Graphpad Software Inc., San Diego, Calif.).

KG1a cells = assay: Annexin V/propidium iodide in vitro apoptosis assay (LD50); format: cell-based; details: 72 h
Experimental: The KG1a cell line was maintained in RPMI medium (Invitrogen, Paisley, UK) supplemented with 100 units/ml penicillin, 100 μg/ml streptomycin and 20% foetal calf serum. Cells were subsequently aliquoted (10^5 cells/100 μl) into 96-well plates and were incubated at 37° C. in a humidified 5% carbon dioxide atmosphere for 72 h in the presence of nucleoside analogues and their respective proTides at concentrations that were experimentally determined for each series of compounds. In addition, control cultures were carried out to which no drug was added. Cells were subsequently harvested by centrifugation and were analyzed by flow cytometry using the Annexin V assay.
Cultured cells were harvested by centrifugation and then resuspended in 195 μl of calcium-rich buffer. Subsequently, 5 μl of Annexin V (Caltag Medsystems, Botolph Claydon, UK) was added to the cell suspension and cells were incubated in the dark for 10 mins prior to washing. Cells were finally resuspended in 190 μl of calcium-rich buffer together with 10 μl of propidium iodide. Apoptosis was assessed by dual-colour immunofluorescent flow cytometry as described previously.
The data obtained in these experiments were evaluated using one way ANOVA. […] LD50 values were calculated from the non-linear regression and line of best-fit analysis of the sigmoidal dose-response curves. […]

[3] = CRL, with AK (adenosine kinase inhibitor A-134974, 1 μM)
[4] = CRL, with EHNA 1 μM (adenosine deaminase blocker)
[5] = CRL, with NBTI 10 μM (nucleoside transporter blocker)
[6] = CEM, with AK (adenosine kinase inhibitor A-134974, 1 μM)
[7] = CEM, with EHNA 1 μM (adenosine deaminase blocker)
[8] = CEM, with NBTI 10 μM (nucleoside transporter blocker)

Row | SMILES | IC50 (RL (CRL-2261); 72 h, CRL (RL, CRL-2261)) | IC50 (RL (CRL-2261); CRL, Control (no inhibitor)) | (FD) fold difference compared to control (RL (CRL-2261); CRL, IC50 with AK inhibitor) | (FD) fold difference compared to control (RL (CRL-2261); CRL, IC50 with EHNA) | (FD) fold difference compared to control (RL (CRL-2261); CRL, IC50 with NBTI) | IC50 (RL (CRL-2261); [3]) | IC50 (RL (CRL-2261); [4]) | IC50 (RL (CRL-2261); [5]) | (FD) fold difference compared to control ([1]; CEM, IC50 with AK inhibitor) | (FD) fold difference compared to control ([1]; CEM, IC50 with EHNA) | (FD) fold difference compared to control ([1]; CEM, IC50 with NBTI) | IC50 ([1]; 72 h, CEM (TdT+ve), 72 hours) | IC50 ([1]; CEM, Control (no inhibitor)) | IC50 [1, 6] | IC50 [1, 7] | IC50 [1, 8] | (FD) fold difference compared to Cordycepin = Cordycepin IC50/ProTide IC50 (RL (CRL-2261); CRL (RL, CRL-2261)) | (FD) fold difference compared to Cordycepin = Cordycepin IC50/ProTide IC50 ([1]; CEM (TdT+ve)) | also measured
1 | C[C@H](NP(=O)(OC[C@@H]1C[C@@H](O)[C@H](n2cnc3c(N)ncnc32)O1)Oc1cccc2ccccc12)C(=O)OCc1ccccc1 (stereo partly drawn) [B, (2S)-benzyl 2-(((((2S,4R,5R)-5-(6-amino-9H-purin-9-yl)-4-hydroxytetrahydrofuran-2-yl)methoxy)(naphthalen-1-yloxy)phosphoryl)amino)propanoate] | 0.4 µM | 3.1 µM | (1) | (2) | (1) | 2.8 µM | 5.2 µM | 2.6 µM | (1) | (1) | (1) | 0.13 µM | 0.9 µM | 1.3 µM | 1.3 µM | 1.4 µM |  |  | 
2 | COC(=O)C(C)(C)NP(=O)(OC[C@@H]1C[C@@H](O)[C@H](n2cnc3c(N)ncnc32)O1)Oc1cccc2ccccc12 (stereo partly drawn) [E, Methyl 2-(((((2S,4R,5R)-5-(6-amino-9H-purin-9-yl)-4-hydroxytetrahydrofuran-2-yl)-methoxy)(naphthalen-1-yloxy)phosphoryl)amino)-2-methylpropanoate] | 11 µM | 8.2 µM | (1) | (1) | (1) | 7.1 µM | 5.9 µM | 8.2 µM | (1) | (1) | (2) | 10 µM | 9.9 µM | 10.3 µM | 13.4 µM | 17.1 µM | (2) | (2) | 
3 | CCOC(=O)CCc1ccccc1OP(=O)(N[C@@H](C)C(=O)OCc1ccccc1)OC[C@@H]1C[C@@H](O)[C@H](n2cnc3c(N)ncnc32)O1 (stereo partly drawn) [F, (2S)-benzyl 2-(((((2S,4R,5R)-5-(6-amino-9H-purin-9-yl)-4-hydroxytetrahydrofuran-2-yl)methoxy)(2-(3-ethoxy-3-oxopropyl)phenoxy)phosphoryl)amino)propanoate] | 3.4 µM |  |  |  |  |  |  |  |  |  |  | 4.3 µM |  |  |  |  | (7) | (5) | 
4 | Nc1ncnc2c1ncn2[C@@H]1O[C@H](CO)C[C@H]1O [Cordycepin, 3′-deoxyadenosine, reference compound] |  |  |  |  |  |  |  |  | (3) |  | (5) |  |  |  |  |  |  |  | IC50 (RL (CRL-2261); 72 h, CRL (RL, CRL-2261), 72 hours, read-out: IC50): 24.5 µM; IC50 (RL (CRL-2261); CRL, Control (no inhibitor), read-out: IC50): 7.3 µM; IC50 (RL (CRL-2261); CRL, with AK (adenosine kinase inhibitor A-134974, 1 μM), read-out: IC50): 28.6 µM; IC50 (RL (CRL-2261); CRL, with EHNA 1 μM (adenosine deaminase blocker), read-out: IC50): 13.2 µM; IC50 (RL (CRL-2261); CRL, with NBTI 10 μM (nucleoside transporter blocker), read-out: IC50): 17.9 µM; IC50 ([1]; 72 h, CEM (TdT+ve), 72 hours, read-out: IC50): 19.5 µM; IC50 ([1]; CEM, Control (no inhibitor), read-out: IC50): 11.5 µM; IC50 ([1]; CEM, with AK (adenosine kinase inhibitor A-134974, 1 μM), read-out: IC50): 29.2 µM; IC50 ([1]; CEM, with EHNA 1 μM (adenosine deaminase blocker), read-out: IC50): 0.7 µM; IC50 ([1]; CEM, with NBTI 10 μM (nucleoside transporter blocker), read-out: IC50): 57.7 µM
5 | C[C@H](NP(=O)(OC[C@@H]1CC(O)[C@H](n2cnc3c(N)ncnc32)O1)Oc1ccccc1)C(=O)OCc1ccccc1 (stereo partly drawn) [Compound A, 3′-deoxyadenosine-5′-O-[phenyl(benzyloxy-L-alaninyl)] phosphate] | 2.1 µM | 3.6 µM | (3) | (1) | (1) | 10.2 µM | 2.9 µM | 2.6 µM | (3) | (2.2) | (1) | 0.87 µM | 1.4 µM | 3.6 µM | 3.1 µM | 2 µM | (12) | (22) | reduction of LSCs as a proportion of the cancer cells in culture (ability to target LSCs) ([2]; Lin−/CD34+/CD38−/CD123+): preferentially target cancer stem cells; LSC targeting compared with the parent nucleoside ([2]; for compound A at 1 mM and above): significantly greater than that of the parent compound; in vitro drug sensitivity / potency (LD50 comparison, FIG. 1) (KG1a cells): increased in vitro potency when compared to Cordycepin
